In patent US12692261B2, “Substituted heterocyclic compounds and therapeutic uses thereof” (Bayer Aktiengesellschaft, priority 2020, dated 2026):
Like-named read-outs stand apart in the source and are kept apart here.

Assays:
Assay type in all cases: biochemical
[1] = target: T1, full-length human CSNK1A1 (Homo sapiens, UniProt P48729); experiment: CSNK1A1 Assay 2 (ADP-Glo, 1 μM ATP, substrate biotin-Ahx-KRRRAL-pS-VASLPGL); conditions: Table 3, read-out: CSNK1A1 Assay 2 IC50 [mol/l] (median)
T1 construct: N-terminal Glutathion-S-Transferase (GST) and full-length human CSNK1A1; purchased Life Technologies PV4174; host or cells: baculovirus infected insect cells
Description: CSNK1A1-inhibitory activity of compounds of the present invention in presence of 1 μM adenosine-tri-phosphate (ATP) was quantified employing the CSNK1A1 assay as described in the following paragraphs. In essence, the enzyme activity is measured by quantification of the adenosine-di-phosphate (ADP), which is generated as a co-product of the enzyme reaction, via the “ADP-Glo™ Kinase Assay” kit from the company Promega. This detection system works as follows: In a first step the ATP not consumed in the kinase reaction is quantitatively converted to cAMP employing an adenylate cyclase (“ADP-Glo-reagent”), then the adenylate cyclase is stopped and the ADP generated in the kinase reaction converted to ATP which generates in a luciferase-based reaction a glow-luminescence signal (“Kinase Detection Reagent”).
(§1) Recombinant fusion protein of N-terminal Glutathion-S-Transferase (GST) and full-length human CSNK1A1, expressed by baculovirus infected insect cells and purified via Glutathion affinity chromatography, was purchased from Life Technologies (product no. PV4174) and used as enzyme. As substrate for the kinase reaction the biotinylated peptide biotin-Ahx-KRRRAL-pS-VASLPGL (C-terminus in amide form) was used which can be purchased e.g. from the company Biosyntan (Berlin-Buch, Germany).
For the assay 50 nl of a 100 fold concentrated solution of the test compound in DMSO was pipetted into a white 1536-well microtiter plate (Greiner Bio-One, Frickenhausen, Germany), 2 μL of a solution of CSNK1A1 in aqueous assay buffer [50 mM HEPES pH 7.5, 10% (v/v) glycerol, 10 mM MgCl2, 50 mM NaCl, 1 mM dithiothreitol, 0.01% (w/v) bovine serum albumin, 0.01% (v/v) Triton X-100] were added and the mixture was incubated for 15 min at 22° C. to allow pre-binding of the test compounds to the enzyme before the start of the kinase reaction. […] The concentration of CSNK1A1 was adjusted depending of the activity of the enzyme lot and was chosen appropriate to have the assay in the linear range, a typical concentrations are about 0.0375 ng/μL. The reaction was stopped by the addition of 2.5 μL of “ADP-Glo-reagent” (1:1.5 fold diluted with water) and the resulting mixture was incubated at 22° C. for 1 h to convert the ATP not consumed in the kinase reaction completely […]. Subsequently 2.5 μL of the “kinase detection reagent” (1.2 fold more concentrated than recommended by the producer) were added, the resulting mixture was incubated at 22° C. for 1 h and then the luminescence measured with a suitable measurement instrument (e.g. Viewlux™ from Perkin-Elmer). The amount of emitted light was taken as a measure for the amount of ADP generated and thereby for the activity of the CSNK1A1.

[2] = target: T1, full-length human CSNK1A1; experiment: CSNK1A1 High ATP Assay (ADP-Glo, 1 mM ATP); conditions: Table 3, read-out: CSNK1A1 high ATP assay IC50 [mol/l] (median);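 note: 30 min kinase reaction at 22 °C with 100 µM peptide substrate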
Description: CSNK1A1-inhibitory activity of compounds of the present invention in presence of 1 mM adenosine-tri-phosphate (ATP) was quantified employing the CSNK1A1-high-ATP-assay as described in the following paragraphs. In essence, the enzyme activity is measured by quantification of the adenosine-di-phosphate (ADP), which is generated as a co-product of the enzyme reaction, via the “ADP-Glo™ Kinase Assay” kit from the company Promega. This detection system works as follows: In a first step the ATP not consumed in the kinase reaction is quantitatively converted to cAMP employing an adenylate cyclase (“ADP-Glo-reagent”), then the adenylate cyclase is stopped and the ADP generated in the kinase reaction converted to ATP which generates in a luciferase-based reaction a glow-luminescence signal (“Kinase Detection Reagent”).
as §1
For the assay 50 nl of a 100 fold concentrated solution of the test compound in DMSO was pipetted into a white low volume 384-well microtiter plate (Greiner Bio-One, Frickenhausen, Germany), 2 μL of a solution of CSNK1A1 in aqueous assay buffer [50 mM HEPES pH 7.5, 10% (v/v) glycerol, 10 mM MgCl2, 50 mM NaCl, 1 mM dithiothreitol, 0.01% (w/v) bovine serum albumin, 0.01% (v/v) Triton X-100] were added and the mixture was incubated for 15 min at 22° C. to allow pre-binding of the test compounds to the enzyme before the start of the kinase reaction. […] The concentration of CSNK1A1 was adjusted depending of the activity of the enzyme lot and was chosen appropriate to have the assay in the linear range, a typical concentration is about 0.4 ng/μL. The reaction was stopped by the addition of 2.5 μL of “ADP-Glo-reagent” (1:1.5 fold diluted with water) and the resulting mixture was incubated at 22° C. for 1 h to convert the ATP not consumed in the kinase reaction completely […]. Subsequently 2.5 μL of the “kinase detection reagent” (1.2 fold more concentrated than recommended by the producer) were added, the resulting mixture was incubated at 22° C. for 1 h and then the luminescence measured with a suitable measurement instrument (e.g. Viewlux™ from Perkin-Elmer). The amount of emitted light was taken as a measure for the amount of ADP generated and thereby for the activity of the CSNK1A1.

[3] = target: T2, wild-type Epidermal Growth Factor Receptor (EGFR) (Homo sapiens, UniProt P00533); experiment: WT-EGFR Kinase Assay (TR-FRET, 2 mM ATP)
T2 construct: a fragment of human EGFR (amino acids R669 to A1210); made in house; host or cells: Sf9 insect cells
From the text: Inhibitory activity of compounds of the present invention against wild-type Epidermal Growth Factor Receptor (EGFR) was quantified employing the TR-FRET based EGFR assay as described in the following paragraphs.
Recombinant fusion protein of N-terminal Glutathion-S-Transferase (GST) and a fragment of human EGFR (amino acids R669 to A1210), expressed in Sf9 insect cells and purified via affinity chromatography using Glutathion Sepharose as described above, was used as kinase. As substrate for the kinase reaction the biotinylated peptide biotin-Ahx-[…] (C-terminus in amide form) was used which can be purchased e.g. form the company Biosynthan GmbH (Berlin-Buch, Germany).
For the assay 50 nl of a 100 fold concentrated solution of the test compound in DMSO was pipetted into either a black low volume 384 well microtiter plate or a black 1536 well microtiter plate (both Greiner Bio-One, Frickenhausen, Germany), 2 μL of a solution of EGFR in aqueous assay buffer [50 mM Hepes pH 7.0, 10 mM MgCl2, 1 mM dithiothreitol, 0.5 mM EGTA, 0.3 mM activated sodium ortho-vanadate, 0.005% (w/v) bovine serum albumin, 0.005% (v/v) Tween-20] were added and the mixture was incubated for 15 min at 22° C. to allow pre-binding of the test compounds to the enzyme before the start of the kinase reaction. […] The concentration of EGFR was adjusted depending of the activity of the enzyme lot and was chosen appropriate to have the assay in the linear range, typical concentration was 7.6 pg/μL. The reaction was stopped by the addition of 3 μL of a solution of HTRF detection reagents (83.3 nM streptavidine-XL665 [Cisbio Bioassays, Codolet, France] and 1.67 nM PT66-Tb-Cryptate, a terbium-cryptate labelled anti-phospho-tyrosine antibody from Cisbio Bioassays [instead of the PT66-Tb-cryptate PT66-Eu-Chelate from Perkin Elmer can also be used]) in an aqueous EDTA-solution (133.3 mM EDTA, 0.2% (w/v) bovine serum albumin in 50 mM HEPES pH 7.5).
The resulting mixture was incubated 1 h at 22° C. to allow the binding of the biotinylated phosphorylated peptide to the streptavidine-XL665 and the PT66-Tb-Cryptate. Subsequently the amount of phosphorylated substrate was evaluated by measurement of the resonance energy transfer from the PT66-Tb-Cryptate to the streptavidine-XL665. Therefore, the fluorescence emissions at 620 nm and 665 nm after excitation at 337 nm were measured in a HTRF reader, e.g. a Pherastar (BMG Labtechnologies, Offenburg, Germany) or a Viewlux (Perkin-Elmer). The ratio of the emissions at 665 nm and at 622 nm was taken as the measure for the amount of phosphorylated substrate.

[4] = EGFR Wildtyp 2 mM ATP IC50 [mol/l] (median), Table 4

T2 sequence (P00533 669-1210): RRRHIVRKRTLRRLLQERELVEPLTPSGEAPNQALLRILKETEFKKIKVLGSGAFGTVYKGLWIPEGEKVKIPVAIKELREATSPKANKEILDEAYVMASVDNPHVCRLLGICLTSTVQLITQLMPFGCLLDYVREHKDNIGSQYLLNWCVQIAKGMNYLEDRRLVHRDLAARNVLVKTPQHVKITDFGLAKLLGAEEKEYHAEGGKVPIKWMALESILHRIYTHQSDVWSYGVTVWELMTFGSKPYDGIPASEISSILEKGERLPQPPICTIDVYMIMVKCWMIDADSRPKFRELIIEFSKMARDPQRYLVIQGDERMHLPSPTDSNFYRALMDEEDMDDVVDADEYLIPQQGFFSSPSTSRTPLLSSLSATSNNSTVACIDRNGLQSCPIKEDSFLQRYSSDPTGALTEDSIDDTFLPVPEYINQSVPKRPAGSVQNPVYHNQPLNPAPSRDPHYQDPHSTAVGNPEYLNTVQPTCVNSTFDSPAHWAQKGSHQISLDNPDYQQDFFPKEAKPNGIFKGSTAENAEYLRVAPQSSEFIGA
T1 sequence (P48729 whole entry): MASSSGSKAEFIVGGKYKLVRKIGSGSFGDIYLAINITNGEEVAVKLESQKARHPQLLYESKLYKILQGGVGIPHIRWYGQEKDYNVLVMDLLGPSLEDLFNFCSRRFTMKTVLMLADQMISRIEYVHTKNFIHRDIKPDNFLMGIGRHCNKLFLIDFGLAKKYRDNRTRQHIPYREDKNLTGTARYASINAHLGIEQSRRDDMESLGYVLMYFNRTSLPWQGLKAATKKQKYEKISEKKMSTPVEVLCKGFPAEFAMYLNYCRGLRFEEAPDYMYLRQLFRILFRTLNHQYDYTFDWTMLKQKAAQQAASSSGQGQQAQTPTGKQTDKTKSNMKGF

Compound	IC50 [1]	IC50 [2]	IC50 [3, 4]	IC50 ([3]; read-out: EGFR Wildtyp 2 mM ATP IC50 [mol/l] (median), Table 4)
O=C(Nc1cc(-c2[nH]c3c(OCC(F)F)ccnc3c2-c2ccccn2)ccn1)C(CC(F)F)c1ccc(F)cc1 (single isomer, unassigned) [Example 76, (2R or S)—N-{4-[7-(2,2-difluoroethoxy)-3-(pyridin-2-yl)-1H-pyrrolo[3,2-b]pyridin-2-yl]pyridin-2-yl}-4,4-difluoro-2-(4-fluorophenyl)butanamide]	2.94 nM	2.94 nM	> 20000 nM	–
O=C(Nc1cc(-c2[nH]c3c(OCC(F)F)ccnc3c2-c2ccccn2)ccn1)C(CC(F)F)c1ccc(F)cc1 (racemic) [Example 75, (2RS)—N-{4-[7-(2,2-difluoroethoxy)-3-(pyridin-2-yl)-1H-pyrrolo[3,2-b]pyridin-2-yl]pyridin-2-yl}-4,4-difluoro-2-(4-fluorophenyl)butanamide]	4.37 nM	4.37 nM	> 20000 nM	–
O=C(Nc1cc(-c2[nH]c3c(OCC(F)F)ccnc3c2-c2ccccn2)ccn1)C(CC(F)F)c1ccc(F)cc1 (single isomer, unassigned) [Example 77, (2R or S)—N-{4-[7-(2,2-difluoroethoxy)-3-(pyridin-2-yl)-1H-pyrrolo[3,2-b]pyridin-2-yl]pyridin-2-yl}-4,4-difluoro-2-(4-fluorophenyl)butanamide]	7.2 nM	7.2 nM	–	> 20000 nM
